From US20250241901A1, “ACTIVATION OF MNRR1 / CHCHD2 AS A THERAPEUTIC TARGET FOR MITOCHONDRIA ASSOCIATED DISORDERS” (Wayne State University, priority 2024, published 2025)

Legend:
Type in all cases: cell-based, human
[1] = tested on: MNRR1; experiment: MNRR1 protein levels in MELAS cybrid cells (immunoblot); settings: MELAS cybrid cells, 10 μM, 24 h
Protocol: FIGS. 6A-6C: FIG. 6A: Above, Chemical structures of nitazoxanide, its metabolites, and similar compounds. Abbreviations: P4, Phenyl-4-aminosalicylic acid; 4ABA, 4-Aminobenzanilide; 4ASA, 4-Amino salicylic acid; BA, Benzanilide; PBO, Phenyl benzoate; PSA, Phenyl salicylic acid; 2AN, 2-Amino 5-nitrothiazole. Below, Equal amounts of lysates of MELAS cells treated with Vehicle (DMSO) or the various compounds (10 μM) for 24 h were separated on an SDS-PAGE gel and probed for MNRR1 levels. Actin was probed as a loading control and numbers below represent an average and SD of 3 biological replicates. FIGS. 6B-6C: MNRR1 transcript levels are shown relative to 18S rRNA (n=4 biological replicates, error bars represent SE). In all figures, * indicates p<0.05, ** indicates p<0.005.
FIGS. 11A-11F: RBPJk and HIF2α compete for binding at the ORE in the MNRR1 promoter to regulate transcription. FIG. 11A: Chromatin immunoprecipitation-qPCR assessing binding of HIF2α to the endogenous MNRR1 promoter in MELAS cybrid cells with 0% (CL9) and 70% heteroplasmy (DW7). FIG. 11B: Dual luciferase reporter assay showing relative activation of MNRR1-luciferase levels in MELAS cybrid cells overexpressing varying proportions of constitutively active RBPJk (RBP-CA) and HIF2α. FIG. 11C: Dual luciferase reporter assay showing relative activation of MNRR1-luciferase levels in MELAS cybrid cells overexpressing the WT (FIG. 9A) or ΔORE (positions 47-53 in SEQ ID NO: 25 in FIG. 9C) promoter with EV (dotted line) or HIF2α. FIG. 11D: Equal amounts of Control or HIFα knockdown (KD) MELAS cybrid cell lysates were separated on an SDS-PAGE gel and probed for HIF2α and MNRR1 levels. Tubulin was probed as loading control. FIG. 11E: Oxygen consumption measured from Control or HIFα knockdown (KD) MELAS cybrid cells. (n=4 biological replicates, error bars represent SE). FIG. 11F: Left, Oxygen consumption measured from MELAS cybrid cells treated with vehicle (DMSO) or PT2385 (10 μM), an inhibitor of HIF2α function, for 24 h. Right, Equal amounts of MELAS cybrid cell lysates treated with vehicle (DMSO) or PT2385 (10 μM) for 24 h, separated on an SDS-PAGE gel, and probed for MNRR1 levels. GAPDH was probed as a loading control.
Immunoblotting: Immunoblotting was performed as described previously. Cell lysates for immunoblotting were prepared using RIPA buffer (Abcam, Waltham, MA) and included a protease and phosphatase inhibitor cocktail (Sigma, St. Louis, MO). […] The clear supernatants were transferred to new tubes and quantified using the Bradford reagent with BSA as standard (BioRad, Hercules. CA). […] For detection after immunoblotting, the SuperSignal™ West Pico PLUS substrate (ThermoFisher, Waltham, MA) was used to generate chemiluminescence signal, which was detected with X-Ray film (RadTech, Vassar, MI).

[2] = tested on: MELAS cybrid cells; experiment: Oxygen consumption of MELAS cybrid cells (Seahorse); settings: 10 μM, 24 h
Protocol: FIGS. 7A-7E: MNRR1 activation by tizoxanide enhances mtDNA biogenesis and mitophagy to shift heteroplasmy in MELAS cells. FIG. 7A: Oxygen consumption measured from MELAS cybrid cells treated with vehicle (DMSO) or tizoxanide (10 μM) for 48 h (n=4 biological replicates, error bars represent SE). FIG. 7B: Haelll restriction enzyme digestion of a PCR-amplified fragment of mtDNA harboring the m.3243A>G mutation from DW7 cells treated with vehicle (DMSO) or tizoxanide (10 μM) for 144 h. […] FIG. 7C: Genes identified using qPCR of MELAS cybrid cells stably overexpressing EV or MNRR1. FIG. 7D: MtDNA levels are shown relative to nuclear DNA (nDNA) (GAPDH) (n=5 biological replicates, error bars represent SE). […]
FIGS. 11A-11F: RBPJk and HIF2α compete for binding at the ORE in the MNRR1 promoter to regulate transcription. […] FIG. 11E: Oxygen consumption measured from Control or HIFα knockdown (KD) MELAS cybrid cells. […] FIG. 11F: Left, Oxygen consumption measured from MELAS cybrid cells treated with vehicle (DMSO) or PT2385 (10 μM), an inhibitor of HIF2α function, for 24 h. […]
Intact cellular oxygen consumption and measurement of ATP: Cellular oxygen consumption was measured with a Seahorse XFe24 Bioanalyzer (Agilent). Cells were plated at a concentration of 3.5×10^4 per well a day prior to treatment and basal oxygen consumption was measured 48 h after treatments, as described. […]

[3] = tested on: RBPJk; experiment: COX412-luciferase dual luciferase reporter assay in MELAS cybrid cells overexpressing MNRR1; settings: MELAS cybrid cells overexpressing MNRR1, 0.5 μM
Source text: FIGS. 12A-12C: FIG. 12A: Dual luciferase reporter assay showing relative activation of MNRR1-luciferase levels in MELAS cybrid cells overexpressing varying proportions of empty vector (EV) and constitutively active RBPJk (RBP-CA). FIG. 12B: Dual luciferase reporter assay showing relative activation of MNRR1-luciferase levels in MELAS cybrid cells overexpressing an empty vector (EV) or constitutively active RBPJk (RBP-CA) and HIF2α. FIG. 12C: Dual luciferase reporter assay showing relative activation of COX412-luciferase levels in MELAS cybrid cells overexpressing an empty vector (EV), MNRR1, and MNRR1+Auranofin (0.5 μM).
Luciferase reporter assay: Luciferase assays were performed with the dual-luciferase reporter assay kit (Promega). Briefly, cells were lysed in 1× passive lysis buffer (Promega) and 25 μL of lysate was used for assay with a tube luminometer using an integration time of 10 s. Transfection efficiency was normalized with the co-transfected pRL-SV40 Renilla luciferase expression plasmid.

`CS(=O)(=O)c1ccc(Oc2cc(F)cc(C#N)c2)c2c1[C@H](O)C(F)(F)C2` [PT2385] was tested, and the MNRR1 protein [1] was “rebound increase” and the OCR [2] was “rebound increase”.

For `CC(=O)OC[C@H]1O[C@@H]([S-])[C@H](OC(C)=O)[C@@H](OC(C)=O)[C@@H]1OC(C)=O.CCP(CC)CC.[Au+]` [Auranonfin, Auranofin], the “MNRR1 induced transcription (COX412-luciferase)” value [3] was “able to block the effects of MNRR1 induced transcription”.
